Patent US11945826B2, “Hydroxypyridoxazepines as NRF2 activators” (GLAXOSMITHKLINE INTELLECTUAL PROPERTY DEVELOPMENT LIMITED, priority 2019, dated 2024)

System: Nrf2 (NQO1 activity in BEAS-2B cells)
Experiment: BEAS-2B NQO1 MTT Assay
Format: cell-based
Conditions: Homo sapiens, 48 hours, NQO1 specific activity induction, read-out: EC50
From the text: NAD(P)H:quinone oxidoreductase 1 (NQO1), also called DT diaphorase, is a homodimeric FAD-containing enzyme that catalyzes obligatory NAD(P)H-dependent two-electron reductions of quinones and protects cells against the toxic and neoplastic effects of free radicals and reactive oxygen species arising from one-electron reductions. The transcription of NQO1 is finely regulated by Nrf2, and thus NQO1 activity is a good marker for Nrf2 activation. On day one, frozen BEAS-2B cells (ATCC) were thawed in a water bath, counted, and re-suspended at a concentration of 250,000 cells/mL. Fifty microliters of cells were plated in 384 well black clear-bottomed plates. Plates were incubated at 37° C., 5% CO2 overnight. On day two, plates were centrifuged and 50 nL of compound or controls were added to the cells. Plates were then incubated at 37° C., 5% CO2 for 48 hours. On day four, medium was aspirated from the plate and crude cell lysates were made by adding 13 μL of 1× Cell Signalling Technologies lysis buffer with 1 Complete, Mini, EDTA-free Protease Inhibitor Tablet (Roche) for each 10 mL of lysis buffer. After lysis plates were incubated for 20 minutes at room temperature. Two microliters of lysate were removed for use in Cell Titer Glo assay (Promega) and MTT cocktail was prepared (Prochaska et. al. 1998) for measurement of NQO1 activity. Fifty microliters of MTT cocktail was added to each well, plate was centrifuged, and analyzed on an Envision plate reader (Perkin Elmer) using Absorbance 570 nm label for 30 minutes. Product formation was measured kinetically and the pEC50 of NQO1 specific activity induction was calculated by plotting the change in absorbance (Delta OD/min) versus the log of compound concentration followed by 3-parameter fitting.
EC50s<1 nM (+++++), EC50s 1 nM-10 nM (++++), EC50s 10 nM-100 nM (+++), EC50s 100 nM-1 μM (++), EC50s 1 μM-10 μM (+).

SMILES	EC50 [nM]
Cc1ccc([C@@H](c2ccc3c(nnn3C)c2C)C(C)(C)C(=O)O)cc1CN1Cc2nc(O)ccc2O[C@@H](C(F)(F)F)C1 [Example 21, (S)-3-(1,4-dimethyl-1H-benzo[d][1,2,3]triazol-5-yl)-3-(3-(((R)-7-hydroxy-2-(trifluoromethyl)-2,3-dihydropyrido[2,3-f][1,4]oxazepin-4(5H)-yl)methyl)-4-methylphenyl)-2,2-dimethylpropanoic acid]	10 to 100
Cc1ccc([C@@H](c2ccc3c(nnn3C)c2C)C(C)(C)C(=O)O)cc1CN1Cc2nc(O)ccc2O[C@H](C(F)(F)F)C1 [Example 19, (S)-3-(1,4-dimethyl-1H-benzo[d][1,2,3]triazol-5-yl)-3-(3-(((S)-7-hydroxy-2-(trifluoromethyl)-2,3-dihydropyrido[2,3-f][1,4]oxazepin-4(5H)-yl)methyl)-4-methylphenyl)-2,2-dimethylpropanoic acid]	< 1
Cc1ccc([C@@H](c2ccc3c(nnn3C)c2C)C(C)(C)C(=O)O)cc1CN1Cc2nc(O)ccc2O[C@@H](C)C1 [Example 23, (S)-3-(1,4-dimethyl-1H-benzo[d][1,2,3]triazol-5-yl)-3-(3-(((S)-7-hydroxy-2-methyl-2,3-dihydropyrido[2,3-f][1,4]oxazepin-4(5H)-yl)methyl)-4-methylphenyl)-2,2-dimethylpropanoic acid]	10 to 100
CC[C@@H]1CN(Cc2cc([C@H](CC(=O)O)c3ccc4c(nnn4C)c3C)ccc2C)Cc2nc(O)ccc2O1 [Example 10, (S)-3-(1,4-dimethyl-1H-benzo[d][1,2,3]triazol-5-yl)-3-(3-(((R)-2-ethyl-7-hydroxy-2,3-dihydropyrido[2,3-f][1,4]oxazepin-4(5H)-yl)methyl)-4-methylphenyl)propanoic acid]	10 to 100
CC[C@]1(C)CN(Cc2cc([C@@H](CC(=O)O)c3ccc4c(nnn4C)c3C)ccc2C)Cc2nc(O)ccc2O1 [Example 26, (R)-3-(1,4-dimethyl-1H-benzo[d][1,2,3]triazol-5-yl)-3-(3-(((R)-2-ethyl-7-hydroxy-2-methyl-2,3-dihydropyrido[2,3-f][1,4]oxazepin-4(5H)-yl)methyl)-4-methylphenyl)propanonic acid]	100 to 1000
Cc1ccc([C@@H](CC(=O)O)c2ccc3c(nnn3C)c2C)cc1CN1Cc2nc(O)ccc2OC(C)(C)C1 [Example 5, (R)-3-(1,4-dimethyl-1H-benzo[d][1,2,3]triazol-5-yl)-3-(3-((7-hydroxy-2,2-dimethyl-2,3-dihydropyrido[2,3-f][1,4]oxazepin-4(5H)-yl)methyl)-4-methylphenyl)propanoic acid]	10 to 100
CC[C@H]1CN(Cc2cc([C@@H](CC(=O)O)c3ccc4c(nnn4C)c3C)ccc2C)Cc2nc(O)ccc2O1 [Example 7, (R)-3-(1,4-dimethyl-1H-benzo[d][1,2,3]triazol-5-yl)-3-(3-(((S)-2-ethyl-7-hydroxy-2,3-dihydropyrido[2,3-f][1,4]oxazepin-4(5H)-yl)methyl)-4-methylphenyl)propanoic acid]	100 to 1000
Cc1ccc([C@@H](c2ccc3c(nnn3C)c2C)C(C)(C)C(=O)O)cc1CN1CCOc2ccc(O)nc2C1 [Example 24, (S)-3-(1,4-dimethyl-1H-benzo[d][1,2,3]triazol-5-yl)-3-(3-((7-hydroxy-2,3-dihydropyrido[2,3-f][1,4]oxazepin-4(5H)-yl)methyl)-4-methylphenyl)-2,2-dimethylpropanoic acid]	10 to 100
Cc1ccc([C@H](CC(=O)O)c2ccc3c(nnn3C)c2C)cc1CN1Cc2nc(O)ccc2OC(C)(C)C1 [Example 11, (S)-3-(1,4-dimethyl-1H-benzo[d][1,2,3]triazol-5-yl)-3-(3-((7-hydroxy-2,2-dimethyl-2,3-dihydropyrido[2,3-f][1,4]oxazepin-4(5H)-yl)methyl)-4-methylphenyl)propanoic acid]	100 to 1000
Cc1ccc([C@@H](CC(=O)O)c2ccc3c(nnn3C)c2C)cc1CN1Cc2nc(O)ccc2O[C@H](C)C1 [Example 4, (R)-3-(1,4-dimethyl-1H-benzo[d][1,2,3]triazol-5-yl)-3-(3-(((R)-7-hydroxy-2-methyl-2,3-dihydropyrido[2,3-f][1,4]oxazepin-4(5H)-yl)methyl)-4-methylphenyl)propanoic acid]	10 to 100
Cc1ccc([C@H](CC(=O)O)c2ccc3c(nnn3C)c2C)cc1CN1Cc2nc(O)ccc2O[C@@H](C(F)(F)F)C1 [Example 28, (S)-3-(1,4-dimethyl-1H-benzo[d][1,2,3]triazol-5-yl)-3-(3-(((R)-7-hydroxy-2-(trifluoromethyl)-2,3-dihydropyrido[2,3-f][1,4]oxazepin-4(5H)-yl)methyl)-4-methylphenyl)propanoic acid]	1000 to 10000
Cc1ccc([C@H](CC(=O)O)c2ccc3c(nnn3C)c2C)cc1CN1Cc2nc(O)ccc2O[C@@H](C(C)C)C1 [Example 9, (S)-3-(1,4-dimethyl-1H-benzo[d][1,2,3]triazol-5-yl)-3-(3-(((S)-7-hydroxy-2-isopropyl-2,3-dihydropyrido[2,3-f][1,4]oxazepin-4(5H)-yl)methyl)-4-methylphenyl)propanoic acid]	100 to 1000
Cc1ccc([C@@H](CC(=O)O)c2ccc3c(nnn3C)c2C)cc1CN1Cc2nc(O)ccc2O[C@H](C(C)C)C1 [Example 3, (R)-3-(1,4-dimethyl-1H-benzo[d][1,2,3]triazol-5-yl)-3-(3-(((R)-7-hydroxy-2-isopropyl-2,3-dihydropyrido[2,3-f][1,4]oxazepin-4(5H)-yl)methyl)-4-methylphenyl)propanoic acid]	1 to 10
CC[C@H]1CN(Cc2cc([C@H](CC(=O)O)c3ccc4c(nnn4C)c3C)ccc2C)Cc2nc(O)ccc2O1 [Example 12, (S)-3-(1,4-dimethyl-1H-benzo[d][1,2,3]triazol-5-yl)-3-(3-(((S)-2-ethyl-7-hydroxy-2,3-dihydropyrido[2,3-f][1,4]oxazepin-4(5H)-yl)methyl)-4-methylphenyl)propanoic acid]	1000 to 10000
Cc1ccc([C@@H](c2ccc3c(nnn3C)c2C)C(C)(C)C(=O)O)cc1CN1Cc2nc(O)ccc2O[C@H](C)C1 [Example 14, (S)-3-(1,4-dimethyl-1H-benzo[d][1,2,3]triazol-5-yl)-3-(3-(((R)-7-hydroxy-2-methyl-2,3-dihydropyrido[2,3-f][1,4]oxazepin-4(5H)-yl)methyl)-4-methylphenyl)-2,2-dimethylpropanoic acid]	1 to 10
CC[C@@]1(C)CN(Cc2cc([C@@H](CC(=O)O)c3ccc4c(nnn4C)c3C)ccc2C)Cc2nc(O)ccc2O1 [Example 27, (R)-3-(1,4-dimethyl-1H-benzo[d][1,2,3]triazol-5-yl)-3-(3-(((S)-2-ethyl-7-hydroxy-2-methyl-2,3-dihydropyrido[2,3-f][1,4]oxazepin-4(5H)-yl)methyl)-4-methylphenyl)propanonic acid]	10 to 100
Cc1ccc([C@@H](c2ccc3c(nnn3C)c2C)C(C)(C)C(=O)O)cc1CN1Cc2nc(O)ccc2OC(C)(C)C1 [Example 17, (S)-3-(1,4-dimethyl-1H-benzo[d][1,2,3]triazol-5-yl)-3-(3-((7-hydroxy-2,2-dimethyl-2,3-dihydropyrido[2,3-f][1,4]oxazepin-4(5H)-yl)methyl)-4-methylphenyl)-2,2-dimethylpropanoic acid]	1 to 10
Cc1ccc([C@@H](CC(=O)O)c2ccc3c(nnn3C)c2C)cc1CN1Cc2nc(O)ccc2OC2(CCC2)C1 [Example 29]	10 to 100
Cc1ccc([C@@H](CC(=O)O)c2ccc3c(nnn3C)c2C)cc1CN1Cc2nc(O)ccc2O[C@@H](C(F)(F)F)C1 [Example 20, (R)-3-(1,4-dimethyl-1H-benzo[d][1,2,3]triazol-5-yl)-3-(3-(((R)-7-hydroxy-2-(trifluoromethyl)-2,3-dihydropyrido[2,3-f][1,4]oxazepin-4(5H)-yl)methyl)-4-methylphenyl)propanoic acid]	1000 to 10000
Cc1ccc([C@H](CC(=O)O)c2ccc3c(nnn3C)c2C)cc1CN1Cc2nc(O)ccc2O[C@H](C(C)C)C1 [Example 8, (S)-3-(1,4-dimethyl-1H-benzo[d][1,2,3]triazol-5-yl)-3-(3-(((R)-7-hydroxy-2-isopropyl-2,3-dihydropyrido[2,3-f][1,4]oxazepin-4(5H)-yl)methyl)-4-methylphenyl)propanoic acid]	10 to 100
Cc1ccc([C@@H](c2ccc3c(nnn3C)c2C)C(C)(C)C(=O)O)cc1CN1Cc2nc(O)ccc2O[C@H](C(C)C)C1 [Example 15, (S)-3-(1,4-dimethyl-1H-benzo[d][1,2,3]triazol-5-yl)-3-(3-(((R)-7-hydroxy-2-isopropyl-2,3-dihydropyrido[2,3-f][1,4]oxazepin-4(5H)-yl)methyl)-4-methylphenyl)-2,2-dimethylpropanoic acid]	< 1
CC[C@@H]1CN(Cc2cc([C@@H](c3ccc4c(nnn4C)c3C)C(C)(C)C(=O)O)ccc2C)Cc2nc(O)ccc2O1 [Example 13, (S)-3-(1,4-dimethyl-1H-benzo[d][1,2,3]triazol-5-yl)-3-(3-(((R)-2-ethyl-7-hydroxy-2,3-dihydropyrido[2,3-f][1,4]oxazepin-4(5H)-yl)methyl)-4-methylphenyl)-2,2-dimethyl propanoic acid]	< 1
